Results reported in the supplement of paper PMC10307832.

Columns and labels:
Assay in all cases: relative viability (nuclei count vs DMSO), 5 days (fraction); higher = more cells survive
ABC-1 = test system: ABC-1
Summary of the method: (§1)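 Nuclei were stained with Hoechst during a one-step fixation (final 0.05% Triton X-100, 1% formaldehyde, 1 ug/ml Hoechst) carried out 5 days after dosing, then counted on 4× images. The cells, lung cancer lines in 1536-well plates, had been dosed by pin tool the day after seeding with one drug alone or a fixed anchor-drug dose plus five library-drug doses (not always all listed) in √10 steps. Relative viability is the nuclei count in treated wells divided by that in vehicle wells, and each value is the median of duplicate plates.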

CAL-12T = test system: CAL-12T
Summary of the method: as §1

ChaGo-K-1 = test system: ChaGo-K-1
Summary of the method: as §1

HCC-366 = test system: HCC-366
Summary of the method: as §1

HCC-78 = test system: HCC-78
Summary of the method: as §1

LC-2-ad = test system: LC-2-ad
Summary of the method: as §1

LOU-NH91 = test system: LOU-NH91
Summary of the method: as §1

LU99A = test system: LU99A
Summary of the method: as §1

NCI-H1395 = test system: NCI-H1395
Summary of the method: as §1

NCI-H1651 = test system: NCI-H1651
Summary of the method: as §1

NCI-H1734 = test system: NCI-H1734
Summary of the method: as §1

NCI-H1755 = test system: NCI-H1755
Summary of the method: as §1

NCI-H1793 = test system: NCI-H1793
Summary of the method: as §1

NCI-H1944 = test system: NCI-H1944
Summary of the method: as §1

NCI-H2087 = test system: NCI-H2087
Summary of the method: as §1

NCI-H2170 = test system: NCI-H2170
Summary of the method: as §1

NCI-H2228 = test system: NCI-H2228
Summary of the method: as §1

NCI-H2405 = test system: NCI-H2405
Summary of the method: as §1

NCI-H3122 = test system: NCI-H3122
Summary of the method: as §1

NCI-H460 = test system: NCI-H460
Summary of the method: as §1

PC-3 [JPC-3] = test system: PC-3 [JPC-3]
Summary of the method: as §1

RERF-LC-KJ = test system: RERF-LC-KJ
Summary of the method: as §1

UMC-11 = test system: UMC-11
Summary of the method: as §1

## CC1(C)CCC(c2ccc(Cl)cc2)=C(CN2CCN(c3ccc(C(=O)NS(=O)(=O)c4ccc(N[C@H](CCN5CCOCC5)CSc5ccccc5)c(S(=O)(=O)C(F)(F)F)c4)cc3)CC2)C1 [Navitoclax] + CS(=O)(=O)N1CCN(Cc2cc3nc(-c4cccc5[nH]ncc45)nc(N4CCOCC4)c3s2)CC1 [Pictilisib] (partner 1 µM)
ABC-1; first compound 0.005 µM
  relative viability: 0.795
ABC-1; first compound 0.01581 µM
  relative viability: 1
ABC-1; first compound 0.05 µM
  relative viability: 0.686
ABC-1; first compound 0.1581 µM
  relative viability: 0.64
ABC-1; first compound 0.5 µM
  relative viability: 0.616
CAL-12T; first compound 0.005 µM
  relative viability: 0.549
CAL-12T; first compound 0.01581 µM
  relative viability: 0.419
CAL-12T; first compound 0.05 µM
  relative viability: 0.404
CAL-12T; first compound 0.1581 µM
  relative viability: 0.522
CAL-12T; first compound 0.5 µM
  relative viability: 0.393
ChaGo-K-1; first compound 0.005 µM
  relative viability: 0.645
ChaGo-K-1; first compound 0.01581 µM
  relative viability: 0.799
ChaGo-K-1; first compound 0.05 µM
  relative viability: 0.648
ChaGo-K-1; first compound 0.1581 µM
  relative viability: 0.641
ChaGo-K-1; first compound 0.5 µM
  relative viability: 0.667
HCC-366; first compound 0.005 µM
  relative viability: 0.159
HCC-366; first compound 0.01581 µM
  relative viability: 0.174
HCC-366; first compound 0.05 µM
  relative viability: 0.207
HCC-366; first compound 0.1581 µM
  relative viability: 0.107
HCC-366; first compound 0.5 µM
  relative viability: 0.15
HCC-78; first compound 0.005 µM
  relative viability: 0.184
HCC-78; first compound 0.01581 µM
  relative viability: 0.261
HCC-78; first compound 0.1581 µM
  relative viability: 0.232
HCC-78; first compound 0.5 µM
  relative viability: 0.205
LC-2-ad; first compound 0.005 µM
  relative viability: 0.614
LC-2-ad; first compound 0.01581 µM
  relative viability: 0.654
LC-2-ad; first compound 0.05 µM
  relative viability: 0.324
LC-2-ad; first compound 0.1581 µM
  relative viability: 0.447
LC-2-ad; first compound 0.5 µM
  relative viability: 0.38
LOU-NH91; first compound 0.005 µM
  relative viability: 0.51
LOU-NH91; first compound 0.01581 µM
  relative viability: 0.513
LOU-NH91; first compound 0.05 µM
  relative viability: 0.556
LOU-NH91; first compound 0.1581 µM
  relative viability: 0.496
LOU-NH91; first compound 0.5 µM
  relative viability: 0.393
LU99A; first compound 0.005 µM
  relative viability: 0.361
LU99A; first compound 0.01581 µM
  relative viability: 0.35
LU99A; first compound 0.05 µM
  relative viability: 0.336
LU99A; first compound 0.1581 µM
  relative viability: 0.34
LU99A; first compound 0.5 µM
  relative viability: 0.325
NCI-H1395; first compound 0.005 µM
  relative viability: 0.692
NCI-H1395; first compound 0.01581 µM
  relative viability: 0.645
NCI-H1395; first compound 0.05 µM
  relative viability: 0.563
NCI-H1395; first compound 0.1581 µM
  relative viability: 0.818
NCI-H1395; first compound 0.5 µM
  relative viability: 0.67
NCI-H1651; first compound 0.005 µM
  relative viability: 0.592
NCI-H1651; first compound 0.01581 µM
  relative viability: 0.687
NCI-H1651; first compound 0.1581 µM
  relative viability: 0.561
NCI-H1651; first compound 0.5 µM
  relative viability: 0.559
NCI-H1734; first compound 0.005 µM
  relative viability: 0.455
NCI-H1734; first compound 0.01581 µM
  relative viability: 0.481
NCI-H1734; first compound 0.1581 µM
  relative viability: 0.49
NCI-H1734; first compound 0.5 µM
  relative viability: 0.465
NCI-H1755; first compound 0.005 µM
  relative viability: 0.425
NCI-H1755; first compound 0.01581 µM
  relative viability: 0.434
NCI-H1755; first compound 0.05 µM
  relative viability: 0.252
NCI-H1755; first compound 0.1581 µM
  relative viability: 0.406
NCI-H1755; first compound 0.5 µM
  relative viability: 0.352
NCI-H1793; first compound 0.005 µM
  relative viability: 0.317
NCI-H1793; first compound 0.01581 µM
  relative viability: 0.505
NCI-H1793; first compound 0.05 µM
  relative viability: 0.301
NCI-H1793; first compound 0.1581 µM
  relative viability: 0.226
NCI-H1793; first compound 0.5 µM
  relative viability: 0.242
NCI-H1944; first compound 0.005 µM
  relative viability: 0.336
NCI-H1944; first compound 0.01581 µM
  relative viability: 0.371
NCI-H1944; first compound 0.05 µM
  relative viability: 0.374
NCI-H1944; first compound 0.1581 µM
  relative viability: 0.357
NCI-H1944; first compound 0.5 µM
  relative viability: 0.397
NCI-H2087; first compound 0.005 µM
  relative viability: 0.806
NCI-H2087; first compound 0.01581 µM
  relative viability: 0.976
NCI-H2087; first compound 0.05 µM
  relative viability: 0.54
NCI-H2087; first compound 0.1581 µM
  relative viability: 1.02
NCI-H2087; first compound 0.5 µM
  relative viability: 0.887
NCI-H2170; first compound 0.005 µM
  relative viability: 0.306
NCI-H2170; first compound 0.01581 µM
  relative viability: 0.327
NCI-H2170; first compound 0.05 µM
  relative viability: 0.334
NCI-H2170; first compound 0.1581 µM
  relative viability: 0.243
NCI-H2170; first compound 0.5 µM
  relative viability: 0.203
NCI-H2228; first compound 0.005 µM
  relative viability: 0.431
NCI-H2228; first compound 0.01581 µM
  relative viability: 0.526
NCI-H2228; first compound 0.05 µM
  relative viability: 0.367
NCI-H2228; first compound 0.1581 µM
  relative viability: 0.366
NCI-H2228; first compound 0.5 µM
  relative viability: 0.304
NCI-H2405; first compound 0.005 µM
  relative viability: 0.409
NCI-H2405; first compound 0.01581 µM
  relative viability: 0.754
NCI-H2405; first compound 0.05 µM
  relative viability: 0.434
NCI-H2405; first compound 0.1581 µM
  relative viability: 0.451
NCI-H2405; first compound 0.5 µM
  relative viability: 0.41
NCI-H3122; first compound 0.005 µM
  relative viability: 0.592
NCI-H3122; first compound 0.01581 µM
  relative viability: 0.585
NCI-H3122; first compound 0.05 µM
  relative viability: 0.537
NCI-H3122; first compound 0.1581 µM
  relative viability: 0.601
NCI-H3122; first compound 0.5 µM
  relative viability: 0.55
NCI-H460; first compound 0.005 µM
  relative viability: 0.348
NCI-H460; first compound 0.01581 µM
  relative viability: 0.419
NCI-H460; first compound 0.1581 µM
  relative viability: 0.326
NCI-H460; first compound 0.5 µM
  relative viability: 0.334
PC-3 [JPC-3]; first compound 0.005 µM
  relative viability: 0.648
PC-3 [JPC-3]; first compound 0.01581 µM
  relative viability: 0.701
PC-3 [JPC-3]; first compound 0.05 µM
  relative viability: 0.87
PC-3 [JPC-3]; first compound 0.1581 µM
  relative viability: 0.678
PC-3 [JPC-3]; first compound 0.5 µM
  relative viability: 0.75
RERF-LC-KJ; first compound 0.005 µM
  relative viability: 0.446
RERF-LC-KJ; first compound 0.01581 µM
  relative viability: 0.55
RERF-LC-KJ; first compound 0.05 µM
  relative viability: 0.589
RERF-LC-KJ; first compound 0.1581 µM
  relative viability: 0.476
RERF-LC-KJ; first compound 0.5 µM
  relative viability: 0.568
UMC-11; first compound 0.005 µM
  relative viability: 0.743
UMC-11; first compound 0.01581 µM
  relative viability: 0.809
UMC-11; first compound 0.1581 µM
  relative viability: 0.741
UMC-11; first compound 0.5 µM
  relative viability: 0.516
